Measurements: PubChem BioAssay (NCI)
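Cells were grown in 96-well plates and exposed to each compound for 48 hours at five concentrations; endpoints were interpolated linearly between bracketing concentrations, or set to the highest concentration if not reached. The concentration for 50% growth inhibition is given as GI50. TGI: total growth inhibition.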

Columns and labels:
Assay in all cases: NCI tumour cell line growth inhibition, 48 h
[1] = system: MCF7 breast
[2] = system: NCI-H522 lung
[3] = system: SNB-19 CNS
[4] = system: OVCAR-5 ovarian
[5] = system: RXF 393 renal
[6] = system: SK-OV-3 ovarian
[7] = system: HOP-62 NSCLC
[8] = system: A498 renal
[9] = system: SK-MEL-5 melanoma
[10] = system: HCC-2998 colon

| Structure (SMILES) | GI50 [1] [µM] | TGI [1] [µM] | GI50 [2] [µM] | TGI [2] [µM] | GI50 [3] [µM] | TGI [3] [µM] | GI50 [4] [µM] | TGI [4] [µM] | GI50 [5] [µM] | TGI [5] [µM] | GI50 [6] [µM] | TGI [6] [µM] | GI50 [7] [µM] | TGI [7] [µM] | GI50 [8] [µM] | TGI [8] [µM] | GI50 [9] [µM] | TGI [9] [µM] | GI50 [10] [µM] | TGI [10] [µM] |
| --- | --- | --- | --- | --- | --- | --- | --- | --- | --- | --- | --- | --- | --- | --- | --- | --- | --- | --- | --- | --- |
| CSC1=Nc2c(c(C)c(C)n2COC(CO)CO)C2=NC(=O)C(C)N12 (stereo not drawn) | > 100 | > 100 | > 100 | > 100 | > 100 | > 100 | > 100 | > 100 | > 100 | > 100 | > 100 | > 100 | > 100 | > 100 | > 100 | > 100 | > 100 | > 100 | > 100 | > 100 |
| O=C(Nc1ccc2ncccc2c1)Nc1ccc2ncccc2c1 | – | > 100 | – | > 100 | – | > 100 | – | > 100 | – | > 100 | – | > 100 | – | > 100 | – | > 100 | – | > 100 | – | > 100 |
| C/C=C(\C)C(=O)O[C@H]1C=CC(=O)O[C@H]1CCC(=O)[C@H](C)O | 7.47 | 21.9 | 13.5 | 33.7 | 25.7 | 83.5 | 22.4 | 50.8 | 7.08 | 28.5 | 36.5 | > 100 | 22.5 | 48.2 | 24.1 | 56.1 | 13.8 | 27.1 | 17.1 | 32.4 |
| CCOC(=O)c1ccc(NC(=O)Oc2ccc3c(C)cc(=O)oc3c2)cc1 | – | 88 | – | 66.7 | – | > 100 | – | > 100 | – | > 100 | – | 94.4 | – | 98.6 | – | > 100 | – | 29.1 | – | 51.1 |
| C=C1C(=O)OC2CC(C)C(C(CC(C)=O)OC(C)=O)=CCC12 (stereo not drawn) | – | 18.2 | – | 3.27 | – | > 74.9 | – | 31.6 | – | 32.2 | – | > 100 | – | 46.9 | – | 39.4 | – | 32 | – | 24.1 |
| CCN(CC)CCC(CNc1ccnc2cc(Cl)ccc12)c1ccc(Cl)cc1 (stereo not drawn) | 1.06 | 2.32 | 0.608 | 2.19 | 1.98 | 5.78 | 3.01 | 11.2 | 1.04 | 2.32 | 2.1 | 5.4 | 1.78 | 5.9 | 1.21 | 2.76 | 1.11 | 2.34 | 0.642 | 2.03 |
| CCOC(=O)C1=CN(C)C=C(C(=O)OCC)C1c1cc(Br)c(OCC)c(OC)c1 | 32 | > 100 | > 100 | > 100 | > 100 | > 100 | > 100 | > 100 | 8.74 | > 100 | > 100 | > 100 | > 100 | > 100 | 4.99 | 94.9 | 49.2 | > 100 | > 100 | > 100 |
| COC(=O)COc1ccccc1/C=C1\N=C(c2ccccc2)N(c2cc(C(F)(F)F)ccc2Cl)C1=O | 39.1 | > 100 | 38.2 | > 100 | 43.5 | > 100 | > 100 | > 100 | 71.6 | > 100 | 57.7 | > 100 | 45 | > 100 | > 100 | > 100 | 42.9 | > 100 | 36.3 | > 100 |
| NC(=O)/C=C/C(=O)c1c(Cl)cccc1Cl | 0.444 | 1.79 | 0.204 | 0.432 | 1.75 | 3.38 | 1.74 | 3.41 | 0.601 | 1.4 | 2.6 | 6.38 | 2.63 | – | 1.44 | 2.74 | 1.4 | 2.7 | 1.51 | 2.88 |
| CC(=O)Nc1ccc(S(=O)(=O)N2C(=O)CCC2C(=O)Nc2ccc(Br)cc2)cc1 (stereo not drawn) | 1.48 | 11 | 1.06 | 3.6 | 2.38 | 20.2 | 4.86 | 21.7 | 2.31 | 6.28 | 3.58 | 16.1 | 2.4 | 11.3 | 0.435 | 4.71 | 1.56 | 4.87 | 3.67 | 22.1 |
| COC(=O)c1ccc2c(c1)nc(NC(=O)c1ccccc1)n2CCCc1ccccc1 | 1.78 | > 100 | 3.58 | 99.3 | 4.25 | > 100 | 22.6 | > 100 | 16.3 | > 100 | 7.63 | > 100 | 5.03 | > 100 | 16 | > 100 | 2.13 | 5.87 | 30.6 | > 100 |
| Nc1nn2cc(F)cnc2c1C(=O)Nc1cncc(F)c1N1CCC(C(=O)N2CCN(C3COC3)CC2)CC1 | 0.0608 | > 100 | 0.427 | 3.05 | 0.91 | 7.68 | 0.616 | > 100 | 0.11 | 0.778 | 0.243 | 6.02 | 0.676 | 3.98 | 0.181 | 0.857 | 0.428 | 1.77 | 0.0464 | > 100 |
| COc1cccc(CC(C)=C(c2ccc(OCCN(C)C)cc2)c2ccc(OCCN(C)C)cc2)c1 | 0.926 | 3.85 | 2.86 | 7.95 | 4.38 | 8.99 | 3.24 | 7.35 | 0.779 | 4.44 | 5.66 | 10.4 | 2.24 | 6.92 | 4.79 | 9.63 | 4.75 | 9.26 | 0.895 | 4.92 |
| CC(=O)OC1COC(Oc2c(C)c3c4c(c2O)[C@@H](C)CC[C@@H]4[C@@H](C)C[C@H]3C=C(C)C)C(O)C1OC(C)=O (stereo partly drawn) | 17.5 | > 100 | 17.6 | 35 | 16 | 40.1 | 15.5 | 30.1 | 11.4 | 28.5 | 20.8 | 37.1 | 20 | 36.1 | 23.5 | 45.7 | 24.7 | 52.7 | 2.3 | 8.84 |
| Cn1c(I)c(C#CCO[Si](C)(C)C(C)(C)C)c(=O)[nH]c1=O | 15 | 33.2 | 1.8 | 3.95 | > 100 | > 100 | 18 | 33 | 18.8 | 34.3 | > 100 | > 100 | > 44.1 | > 59 | 19.9 | 38 | 17.1 | 31.3 | 18.6 | 34.7 |
| CCN1CCN(C(=O)[C@@]2(C)CC[C@]3(C)CC[C@]4(C)C(=CC(=O)[C@@H]5[C@@]6(C)CC[C@H](OC7C[C@@H](O)[C@@H](O)C(C)O7)C(C)(C)[C@@H]6CC[C@]54C)[C@@H]3C2)CC1 (stereo partly drawn) | 1.79 | 7.54 | 1.59 | 6.15 | 2.26 | 8.57 | 1.19 | 3.12 | 3.73 | 11.5 | 9.96 | 19.5 | 2.39 | 10.8 | 8.96 | 17 | 1.56 | 4.6 | 2.26 | 8.94 |
| COc1ccccc1/C=N\N/C(N)=N\N=C\c1ccccc1OC | 0.254 | 4.36 | 0.956 | – | 0.376 | 27.7 | 3.36 | > 100 | 0.265 | > 100 | 0.484 | 7.62 | 0.586 | 6.68 | 0.372 | 19.4 | 0.371 | 4.14 | 1.03 | 11.3 |
| CNCc1ccccc1-c1csc([C@@H](C)Nc2nc(C)nc3cc(OC)c(OC)cc23)c1 | 1.44 | 3.19 | 1.54 | 3.64 | 1.84 | 6.69 | 3.29 | 13.6 | 1.31 | 2.84 | 4.67 | 18.8 | 1.43 | 12.3 | 0.289 | 1.92 | 1.72 | 3.09 | 1.43 | 2.9 |
| COc1ccc(Sc2[nH]c(C(C)=O)c3ccccc23)cc1 | 12.2 | 24.6 | 10.2 | 36.1 | 11.6 | 31.2 | 17.3 | 53.1 | 13.6 | 39 | 1.79 | 10.5 | 12.7 | 25.3 | 0.265 | 0.848 | 12.5 | 24.9 | 11.9 | 24.4 |
